In ChEMBL document CHEMBL1157539, “Thousands of chemical starting points for antimalarial lead identification” (Nature, 2010):

system: Plasmodium falciparum; experiment: GSK_TCMDC: Inhibition of Plasmodium falciparum 3D7 in whole erythrocytes, using parasite LDH activity as an index of growth.; format: functional, organism-based; conditions: Plasmodium falciparum, 3D7

SMILES	XC50
Cc1cc(OCCCN2CCC(NS(=O)(=O)c3cccc(Br)c3)C2)c2ccccc2n1 (centres undefined)	1210 nM
COC(=O)c1ccc(OCC(O)CO)cc1O (centres undefined)	738 nM
CC1CCCN1Cc1cccc(-c2ccc(C(=O)NCCOc3ccccc3)s2)c1 (centres undefined)	925 nM
Cc1cccc2nc(-c3cccc(-c4ccc(NC(=O)C(C)CN5CCN(C)CC5)cc4)c3)[nH]c12 (centres undefined)	175 nM
COc1ccc(OC)c(-c2ccc(=O)n(CC(=O)Nc3cccc4ccccc34)n2)c1	901 nM
Cc1cc(C)c(CC(C)NCC(O)c2cccc(C(F)(F)F)c2)c(C)c1 (centres undefined)	568 nM
CN(C)CCCN1CCN(C(=O)c2cc3cc(-c4ccccc4)ccc3n2S(=O)(=O)c2ccccc2)CC1	119 nM
N#Cc1cccc(NC(=O)NC2CCN(CCCCCNC(=O)C3CC3c3ccc(Cl)c(Cl)c3)CC2)c1 (centres undefined)	785 nM
COc1ccc(C2c3ccccc3-c3nc(N)nc(N)c3C2C)cc1 (centres undefined)	241 nM
N#Cc1c(N2CCCCCC2)nc(N)c2c(N)nc3c(c12)CC(=O)N3c1ccc(F)cc1	213 nM
O=S(=O)(c1ccc2cc[nH]c2c1)N1CCC[C@@H]1CCN1CCC(c2c[nH]c3cnccc23)CC1	1020 nM
COc1ccc(CCC(C)(C)NCC(O)c2cccc(C(F)(F)F)c2)cc1 (centres undefined)	480 nM
O=C(Cc1ccccc1)NC(c1ccco1)c1cc(Cl)c2cccnc2c1O (centres undefined)	691 nM
Cc1cc(CNC(=O)[C@H](CC2CCCCC2)Nc2ccc(C#N)c3ccccc23)c(C(F)(F)F)o1	1180 nM
CC1CN(c2ccc3occ(C(=O)Nc4ccc(-c5ccncc5)c(Cl)c4)c3c2)CC(C)N1C (centres undefined)	855 nM
Oc1cccc(-c2nc(-c3ccccc3)c(-c3ccc4oc5ccc(-c6[nH]c(-c7cccc(O)c7)nc6-c6ccccc6)cc5c4c3)[nH]2)c1	795 nM
O=C(Nc1cccc(CN2CCN(Cc3cccc(O)c3)CC2)c1)c1cc2ccccc2s1	1120 nM
CCOc1cc(C(=O)NC2CCN(Cc3ccccc3)CC2)ccc1-c1nc2cc(Cl)c(Cl)cc2[nH]1	469 nM
COc1cc(F)c2ncc(Cl)c(CCN3CCC(NCc4cc5c(cn4)OCCO5)CC3)c2c1	481 nM
CC(C)N1CCN(C(CN2CCN(CCCOc3ccccc3-c3ccccc3)CC2)c2ccc(F)cc2)CC1 (centres undefined)	789 nM
Cc1cccc2nc(-c3ccc(-c4ccc(CNCC5CCCO5)cc4)cc3)[nH]c12 (centres undefined)	678 nM
COc1ccc(C2CCC(NCCCCNC(=O)c3ccc(NC(=O)c4ccc(Cl)cc4)cc3)CC2)cc1 (centres undefined)	627 nM
CN(C)CCNC(=O)c1csc(Nc2ccc(Cl)c(Cl)c2)n1	225 nM
Cc1cccc2nc(-c3ccc(-c4cccc(CNCc5ccccc5)c4)cc3)[nH]c12	246 nM
Cc1cc(CNCCCCCCNCc2cccc([N+](=O)[O-])c2)ccc1O	723 nM

SMILES	XC50
COc1cc2c(cc1OC)CN(CCCCNC(=O)c1ccc(NC(=O)c3cc(Cl)cc(Cl)c3)cc1)CC2	778 nM
O=C(Nc1cccc(F)c1)NC1CCN(c2ccnc3cc(Cl)ccc23)C1 (centres undefined)	189 nM
O=c1[nH]ccc2nc(N[C@@H]3CCCNC3)nc(Nc3ccc(S(=O)(=O)N4CCOCC4)cc3)c12	742 nM
CN1CCC(NCc2ccc(-c3ccc(Cl)cc3)cc2)CC1	750 nM
N=C(N)NCCCCN(Cc1ccccc1)c1ccccc1	745 nM
CCN(CC)CCN(Cc1ccc(-c2ccc(C(F)(F)F)cc2)cc1)C(=O)Cn1cc(CCCc2cccc(F)c2F)c(=O)c2ccccc21	1060 nM
CCCCN(C(=O)c1ccccc1Cl)c1nnc(-c2ccccc2C)s1	1020 nM
CN1CCC(NC(=O)c2cccc(Nc3cc(Nc4cccc(Br)c4)ncn3)c2)CC1	1010 nM
COc1cc(NC(=O)/C=C/c2cc(F)cc(F)c2F)cc(OCCN2CCC3(CC2)OCCO3)c1	269 nM
COc1ccc(Nc2nc(NC3CCN(C)CC3)cc(-c3ccc(OC)cc3)n2)cc1	545 nM
CCC(CC)N1CCN(CC(=O)Nc2ccc([N+](=O)[O-])cc2C(=O)Nc2cccc(OC)c2)CC1	866 nM
CCCCN(CCCC)Cc1cc(Nc2ccnc3cc(Cl)ccc23)ccc1O	17.2 nM
CC(C)CCn1c(Sc2ccc(C#N)c([N+](=O)[O-])c2)nnc1-c1ccc(Cl)cc1	875 nM
CCn1c(SCc2ccc(F)cc2)nc2sc3c(c2c1=O)CCN(C)C3	254 nM
CCN(Cc1ccccc1)CC(O)c1ccc(Cl)c(Cl)c1 (centres undefined)	182 nM
O=C(Nc1ccc(CN2CCOCC2)cc1)c1ccc(-c2ccc(Br)cc2)o1	1120 nM
CC(Cc1ccc([N+](=O)[O-])cc1)NCC(O)c1cccc(C(F)(F)F)c1 (centres undefined)	898 nM
Clc1ccc(OCc2ccccc2)c(Cc2ccc(-c3nc4cnccc4[nH]3)o2)c1	754 nM
COc1ccc(-c2cccc(NC(=O)c3ccc(F)cc3)c2)cc1CNC(C)C	1380 nM
COc1ccc2nc(N3CCNCC3)nc(NCCCc3ccccc3)c2c1	1000 nM
CC(C)CC(NC(=O)c1cc2ccccc2s1)C(=O)N1CCCCCC1c1ccc(C(C)(C)C)cc1 (centres undefined)	857 nM
CC(=O)CSC(C=Cc1ccc(N(C)C)cc1)=Nc1ccccc1	1120 nM
CC(C)NCc1cc(Nc2ccnc3cc(Cl)ccc23)ccc1O	25 nM
COc1ccccc1Oc1c(N(C)S(=O)(=O)c2ccc(C(C)C)cc2)nc(C(F)(F)F)nc1N(C)S(=O)(=O)c1ccc(C(C)C)cc1	846 nM
COc1cccc(CNc2ncc(-c3ccsc3)c(-c3nccs3)n2)c1	422 nM

SMILES	XC50
CC(CNC(=O)C(c1cc2ccccc2o1)N1CCN(C(c2ccccc2)c2ccccc2)CC1)c1ccccc1 (centres undefined)	626 nM
Cc1nc(C)c(-c2ccc(Oc3ccc(Cl)cc3Cl)cc2)c(O)c1Br	297 nM
Cc1nnc(N2C(=N)SC(=Cc3ccc(-c4ccc(OC(F)(F)F)cc4)o3)C2=O)s1	526 nM
Cc1ccc(Nc2nc(-c3ccccn3)cs2)nc1	752 nM
N#Cc1ccc(-c2ccc(C(=O)NCCCCN3CCC(c4cc(Br)c5c(c4O)CCCC5)CC3)cc2)cc1	154 nM
O=S(=O)(NCCN1CCCC1)c1ccc(-c2cccc(CNC3Cc4ccccc4C3)c2)s1	746 nM
COc1ccc(CNC2CCN(C)CC2)cc1-c1ccc(S(=O)(=O)NCc2ccccc2)c(C)c1	992 nM
Nc1nc(N)c2c(Oc3cccc4ccccc34)cccc2n1	1010 nM
CN1CCN(C(C(=O)NCc2cc(Cl)cc(Cl)c2)c2ccc(NC(=O)Nc3ccccc3)cc2)CC1 (centres undefined)	692 nM
COc1ccc2nccc([C@@H](O)CN3CCC(NC(=O)/C=C/c4ccc(Cl)c(C(F)(F)F)c4)CC3)c2c1	290 nM
CC(=O)Nc1ccc(CN2CCc3ccc(NS(=O)(=O)c4cccc(OCc5ccc(Cl)cc5)c4)cc3CC2)s1	906 nM
C[C@@]12C[C@@H](Nc3nc(NCCc4ccc(O)cc4)nc(N4CCNCC4)n3)C[C@@H](C1)c1cccc(Cl)c1O2	1320 nM
CC(=O)Nc1ncc(C(=O)Nc2ccc(-c3cccc(-c4nc5cc(F)ccc5[nH]4)c3)cc2)s1	354 nM
COc1cccc(Nc2nc(Nc3cccc(C#N)c3)cc(-c3ccncc3)n2)c1	764 nM
CO/C(=C\C=C\c1cc2cc(Cl)c(Cl)cc2[nH]1)C(=O)NCCCN1CCC(c2ccccc2)CC1	906 nM
O=C(NC1CCC(CN2CCC(c3c[nH]c4ccccc34)CC2)CC1)c1cc(-c2ccc(F)cc2F)ccc1O (centres undefined)	356 nM
Cc1ccc2c(Cc3cnc(N)nc3N)cc(C)c(N)c2n1	1420 nM
NC(=O)c1ccsc1NC(=O)CNC(c1ccc(F)cc1)c1cccs1 (centres undefined)	947 nM
CCCCCCNCCOc1ccc(-c2nc(-c3ccccc3)c(-c3ccccc3)[nH]2)cc1	669 nM
O=C(C=CC(=O)N1CCCCC1)NCc1ccccc1	732 nM
CC1CCN(c2nc(C(=O)Nc3cccc4c3CCCC4)c(C(C)C)s2)CC1	1040 nM
CN1CCN(CCCN(Cc2cccc(-c3cccc(CNC4CCCC4)c3)c2)C(=O)CCC2CCCC2)CC1	675 nM
c1ccc(Oc2ccc(Nc3ccnc4ccc(-c5ccco5)cc34)cc2)cc1	928 nM
CCCOc1ccc(C=C(CC(=O)O)c2nc3ccccc3s2)cc1OCC	554 nM
Cc1cc(NC(=O)Nc2ccc3nc(C)oc3c2)c2cc(Cl)ccc2n1	1120 nM

SMILES	XC50
C/C(=C\C(=O)NC1CC1)c1ccccc1OCc1ccccc1	504 nM
CN(C)CCCOc1ccc(CCCCc2ccc(Cl)cc2C(=O)c2ccccc2)cc1	1030 nM
CC(=O)c1cccc(S(=O)(=O)NCCCNc2nc3cc(C)cc(C)c3cc2C#N)c1	914 nM
CN1CCN(c2ccc(Nc3nc(N)c4ccn(C5CCC5)c4n3)cc2)CC1	1220 nM
CCCCCCc1cc(Oc2c(I)cc(C[C@H](N)C(=O)O)cc2I)ccc1O	906 nM
NS(=O)(=O)c1cccc(N/C=C2\C(=O)Nc3ccc(S(=O)(=O)Cc4c(Cl)cccc4Cl)cc32)c1	720 nM
COc1ccc2nc(-c3ccccc3)cc(NCCCNc3cc(-c4ccccc4)nc4ccc(OC)cc34)c2c1	122 nM
CCn1ncc2c(NC3CCOCC3)c(CNC(=O)c3ccnn3C)c(C)nc21	533 nM
COc1ccccc1NC(=O)Nc1cccc(-c2ccc(-c3nc4cc(C(F)(F)F)ccc4[nH]3)cc2)c1	306 nM
O=S(=O)(c1ccc2ccccc2c1)N1CCCN(Cc2ccc(OCCCN3CCCCC3)cc2)CC1	1100 nM
Cc1cccc(CNc2nc(C)cc(NCCC(=O)NCCOc3ccccc3)n2)c1	871 nM
CC(C)[C@@H](C(=O)NCc1cccc(C(F)(F)F)c1)N1C(=O)CCC1C(=O)Nc1ccc([N+](=O)[O-])cc1 (some centres undefined)	934 nM
CCOc1ccc(NC(=O)c2ccc(CN3CCCN(Cc4cccc(O)c4)CC3)cc2)cc1	1310 nM
O=C(Nc1ccccc1)N(Cc1ccccc1-c1cccc(CNCc2ccc3c(c2)OCO3)c1)C1CCN(Cc2ccccc2)CC1	108 nM
O=C(Nc1ccc(Cl)cc1F)NC1CCN(CCCCCNC(=O)C2CC2c2ccc(Cl)c(Cl)c2)CC1 (centres undefined)	510 nM
Cc1cc(N/N=C/c2cccc([N+](=O)[O-])c2)c2ccc(F)cc2n1	690 nM
CCC(C)c1cnc2nc(N)nc(N)c2c1C (centres undefined)	444 nM
CCCN1CCN(c2cc(S(=O)(=O)Nc3ccc(C(=O)NCc4cccc(C(F)(F)F)c4)cc3)ccc2OC)CC1	1010 nM
CCOc1cc(CC)ccc1C1CCN(CCN2CCC(NC(=O)c3ccc(-c4ccc(C#N)cc4)cc3)CC2)CC1	610 nM
Cc1ccccc1C1CCN(C2CCC(NC(=O)c3cc(-c4ccc(Cl)cc4)cs3)CC2)CC1 (centres undefined)	158 nM
CCCNC(=O)c1cncc(-c2cccc(CNC3Cc4ccccc4C3)c2)c1	803 nM
O=C(Nc1ccc(F)cc1)c1cnc(N2CCN(c3ccncc3)CC2)c(Cl)c1	735 nM
CN1CCN(c2ccnc3cc4ccccc4cc23)CC1	947 nM
CCOC(=O)c1nc2ccc(SC3CCCCC3)cn2c1Br	1060 nM
